Measurements: patent US12138294B2, “Transgenic corn with antifungal peptide AGM182 (DN:0113.18)” (GENVOR, INC., priority 2018, dated 2024)
“Also recorded” adds a separate entry of the source. Bridge positions count the residues as written; N and C are the ends. Peptide text beside a SMILES is read from it.

Columns and labels:
[1] = test system: pre-germinated conidia of A. flavus; conditions: read-out: IC50 against A. flavus; in vitro; pre-germinated conidia of A. flavus 70-GFP treated 60 min with 0-25 μM peptide; colonies counted after 24 h at 30° C.
[2] = test system: maize (Zea mays L. Hi-II); assay: Phenotype of transgenic maize plants expressing AGM182; conditions: transgenic maize plants vs. isogenic negative or non-transformed control
porcine blood cells = assay: Hemolysis of porcine blood cells

Compound CC[C@H](C)[C@@H]1NC(=O)CNC(=O)[C@H](CCCNC(=N)N)NC(=O)[C@H](Cc2ccc(O)cc2)NC(=O)[C@@H]2CSSC[C@H](NC1=O)C(=O)N[C@@H](Cc1ccc(O)cc1)C(=O)N[C@@H](CCCNC(=N)N)C(=O)N[C@@H](CCCNC(=N)N)C(=O)N[C@H](C(=O)N[C@@H](CCCNC(=N)N)C(N)=O)CSSC[C@H](NC(=O)[C@H](Cc1c[nH]c3ccccc13)NC(=O)[C@@H](N)CCCCN)C(=O)N[C@@H](Cc1ccccc1)C(=O)N[C@@H](CCCNC(=N)N)C(=O)N[C@@H](C(C)C)C(=O)N2 [tachyplesin1, reference compound] (H-KWCFRVCYRGICYRRCR-NH2; disulfide 3-16, 7-12) has an IC50 [1] of 12.5 µM.

With CC[C@H](C)[C@H](NC(=O)[C@@H]1CSSC[C@H](NC(=O)[C@H](CC(C)C)NC(=O)[C@H](CCCNC(=N)N)NC(=O)[C@H](C)NC(=O)[C@H](CCCCN)NC(=O)[C@@H](NC(=O)[C@@H](N)CCCCN)[C@@H](C)CC)C(=O)N[C@@H](CC(C)C)C(=O)NCC(=O)N[C@@H](CCCCN)C(=O)N[C@@H](Cc2ccccc2)C(=O)N1)C(=O)N[C@@H](CCCCN)C(=O)N[C@@H](C)C(=O)N[C@@H](CCCNC(=N)N)C(=O)N[C@@H](CC(C)C)C(=O)N[C@@H](CCCCN)C(=O)O [AGM182] (H-KIKARLCLGKFCIKARLK-OH; disulfide 7-12) the IC50 [1] was 2.5 µM, the “effect of transgenic expression on plant phenotype and seed weight” value [2] was “did not exhibit any overt phenotype; also recorded: did not have any negative effect on plant phenotype and seed weight” and the “hemolysis of porcine blood cells” value (porcine blood cells; all concentrations of AGM182) was “No hemolysis; also recorded: absence of hemolytic activity”.

With Triton-X [reference compound] the “hemolysis of porcine blood cells” value (porcine blood cells; 0.1% Triton-X, positive control) was 100%.
